pIC50: −log10 of the molar value. Read-outs that look alike come from different tables or passages of the source.
Assays:
BRD4-BD12 (1-477) = BRD4-BD12 (1-477) (Homo sapiens (Human), UniProt O60885); test: Alphascreen binding assay BRD4-BD12; conditions: BRD4(1 2) H4; read-out: Biochemical activity (IC50 μM) BRD4(1 2) H4
Summary of the method: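 In this competition format, compounds displace a biotinylated tetra-acetyl H4 peptide from E. coli-expressed human BRD4 bromodomain constructs captured on nickel chelate beads. The reaction runs at pH 7.5 with 2 mM DTT and detergent for 1 h at room temperature before a 30 min bead step.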

MV-4-11 cells = test: Oncology cell growth assay MV-4-11 (CellTiter Glo); assay type: cell-based; conditions: Homo sapiens, MV4-11, 72 h, read-out: Cell activity (IC50 μM) MV-4-11 3d-Growth
Summary of the method: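 Growth read by CellTiter Glo luminescence after 72 h compound treatment of MLL-AF4-bearing MV-4-11 cells (3000/well). Titration: 8 points, 1:3 steps, maximum 10 μM, 0.2% DMSO final. Data normalized to DMSO wells, four-parameter fit gives pIC50.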

bromodomain = test: at least one of the bromodomain cell assays of Example 57; assay type: cell-based; conditions: at least one of the bromodomain cell assays described in Example 57; read-out: IC50 in at least one of the bromodomain cell assays

| SMILES | IC50 (BRD4-BD12 (1-477)) [µM] | IC50 (MV-4-11 cells; MV-4-11, 3d growth) [µM] | pIC50 (bromodomain) | IC50 (MV-4-11 cells) [µM] |
| --- | --- | --- | --- | --- |
| Cc1noc(C)c1-c1cnc2c(-c3ccc(C(=O)O)cc3)cn(CC3CCCCCCC3)c2c1 [P-0579, 4-[1-(cyclooctylmethyl)-6-(3,5-dimethylisoxazol-4-yl)pyrrolo[3,2-b]pyridin-3-yl]benzoic acid] | < 1 | < 1 | > 5.00 | – |
| Cc1noc(C)c1-c1cnc2c(-c3ccc(O)c(Cl)c3)cn(CC3(F)CCCCC3)c2c1 [P-0524] | < 1 | < 1 | > 5.00 | – |
| Cc1noc(C)c1-c1cnc2c(-c3ccc(C4(C(=O)O)CC4)cc3)cn(CC3CCC(F)(F)CC3)c2c1 [P-0412, 1-[4-[1-[(4,4-difluorocyclohexyl)methyl]-6-(3,5-dimethylisoxazol-4-yl)pyrrolo[3,2-b]pyridin-3-yl]phenyl]cyclopropanecarboxylic acid] | < 1 | – | > 5.00 | < 1 |
| CNC(=O)c1ccc(-n2cc(CC3CCC(F)(F)CC3)c3cc(-c4c(C)noc4C)cnc32)nc1 [P-0532, 6-[3-[(4,4-difluorocyclohexyl)methyl]-5-(3,5-dimethylisoxazol-4-yl)pyrrolo[2,3-b]pyridin-1-yl]-N-methyl-pyridine-3-carboxamide] | < 1 | < 1 | > 5.00 | – |
| CC[C@H](c1ccccc1)n1cc(-c2ccc(C(=O)O)cc2)c2ncc(-c3c(C)noc3C)cc21 [P-0570, 4-[6-(3,5-dimethylisoxazol-4-yl)-1-[(1R)-1-phenylpropyl]pyrrolo[3,2-b]pyridin-3-yl]benzoic acid] | < 1 | < 1 | > 5.00 | – |
| Cc1noc(C)c1-c1cnc2c(-c3cnn(CC(F)(F)F)c3)cn(Cc3ccc(F)cc3)c2c1 [P-0366, 4-[1-[(4-fluorophenyl)methyl]-3-[l-(2,2,2-trifluoroethyl)pyrazol-4-yl]pyrrolo[3,2-b]pyridin-6-yl]-3,5-dimethyl-isoxazole] | < 1 | – | > 5.00 | < 1 |
| Cc1noc(C)c1-c1cnc2c(-c3cccc(S(=O)(=O)NC4CC4)c3)cn(CC3(F)CCCCC3)c2c1 [P-0490, N-cyclopropyl-3-[6-(3,5-dimethylisoxazol-4-yl)-1-[(1-fluorocyclohexyl)methyl]pyrrolo[3,2-b]pyridin-3-yl]benzenesulfonamide] | < 1 | < 1 | > 5.00 | – |
| [2H]C([2H])(C1CCC(F)(F)CC1)n1cc(-c2ccnc(C3CC3)c2)c2ncc(-c3c(C)noc3C)cc21 [P-0341, 4-[3-(2-cyclopropyl-4-pyridyl)-1-[dideuterio-(4,4-difluorocyclohexyl)methyl]pyrrolo[3,2-b]pyridin-6-yl]-3,5-dimethyl-isoxazole] | < 1 | – | > 5.00 | < 1 |
| [2H]C([2H])(C1CCC(F)(F)CC1)n1cc(-c2cnc(OC)nc2)c2ncc(-c3c(C)noc3C)cc21 [P-0346, 4-[1-[dideuterio-(4,4-difluorocyclohexyl)methyl]-3-(2-methoxypyrimidin-5-yl)pyrrolo[3,2-b]pyridin-6-yl]-3,5-dimethyl-isoxazole] | < 1 | – | > 5.00 | < 1 |
| [2H]C([2H])(C1CCC(F)(F)CC1)n1cc(-c2cnc(N)cn2)c2ncc(-c3c(C)noc3C)cc21 [P-0364, 5-[1-[dideuterio-(4,4-difluorocyclohexyl)methyl]-6-(3,5-dimethylisoxazol-4-yl)pyrrolo[3,2-b]pyridin-3-yl]pyrazin-2-amine] | < 1 | – | > 5.00 | < 1 |
| Cc1noc(C)c1-c1cnc2c(c1)c(CC1CCC(F)(F)CC1)cn2-c1ccc(C(=O)O)cn1 [P-0430, 6-[3-[(4,4-difluorocyclohexyl)methyl]-5-(3,5-dimethylisoxazol-4-yl)pyrrolo[2,3-b]pyridin-1-yl]pyridine-3-carboxylic acid] | < 1 | < 1 | > 5.00 | – |
| [2H]C([2H])(C1CCC(F)(F)CC1)n1cc(-c2cnn(CC)c2)c2ncc(-c3c(C)noc3C)cc21 [P-0336, 4-[1-[dideuterio-(4,4-difluorocyclohexyl)methyl]-3-(1-ethylpyrazol-4-yl)pyrrolo[3,2-b]pyridin-6-yl]-3,5-dimethyl-isoxazole] | < 1 | – | > 5.00 | < 1 |
| Cc1noc(C)c1-c1cnc2c(c1)c(CC1CCC(F)(F)CC1)cn2-c1ccc(C(=O)O)cc1F [P-0442, 4-[3-[(4,4-difluorocyclohexyl)methyl]-5-(3,5-dimethylisoxazol-4-yl)pyrrolo[2,3-b]pyridin-1-yl]-3-fluoro-benzoic acid] | < 1 | < 1 | > 5.00 | – |
| [2H]C([2H])(C1CCC(F)(F)CC1)n1cc(-c2ccc(OC)nc2)c2ncc(-c3c(C)noc3C)cc21 [P-0343, 4-[1-[dideuterio-(4,4-difluorocyclohexyl)methyl]-3-(6-methoxy-3-pyridyl)pyrrolo[3,2-b]pyridin-6-yl]-3,5-dimethyl-isoxazole] | < 1 | – | > 5.00 | < 1 |
| Cc1n[nH]c(C)c1-c1cnc2c(-c3cnn(CC(F)(F)F)c3)cn(CC3CCC(F)(F)CC3)c2c1 [P-0440] | < 1 | < 1 | > 5.00 | – |
| COC(=O)Cc1ccc(-c2cn(CC3CCCCC3)c3cc(-c4c(C)noc4C)cnc23)cc1 [P-0589, methyl 2-[4-[1-(cyclohexylmethyl)-6-(3,5-dimethylisoxazol-4-yl)pyrrolo[3,2-b]pyridin-3-yl]phenyl]acetate] | < 1 | < 1 | > 5.00 | – |
| Cc1noc(C)c1-c1cnc2c(-c3ccc(C(=O)NC4CC4)nc3)cn(CC3CCC(F)(F)CC3)c2c1 [P-0536, N-cyclopropyl-5-[1-[(4,4-difluorocyclohexyl)methyl]-6-(3,5-dimethylisoxazol-4-yl)pyrrolo[3,2-b]pyridin-3-yl]pyridine-2-carboxamide] | < 1 | < 1 | > 5.00 | – |
| Cc1noc(C)c1-c1cnc2c(-c3cnn(C)c3C)cn(CC3CCC(F)(F)CC3)c2c1 [P-0394, 4-[1-[(4,4-difluorocyclohexyl)methyl]-3-(1,5-dimethylpyrazol-4-yl)pyrrolo[3,2-b]pyridin-6-yl]-3,5-dimethyl-isoxazole] | < 1 | – | > 5.00 | < 1 |
| Cc1noc(C)c1-c1cnc2c(-c3cccc(CC(=O)O)c3)cn(CC3(F)CCCCC3)c2c1 [P-0384, 2-[3-[6-(3,5-dimethylisoxazol-4-yl)-1-[(1-fluorocyclohexyl)methyl]pyrrolo[3,2-b]pyridin-3-yl]phenyl]acetic acid] | < 1 | – | > 5.00 | < 1 |
| Cc1noc(C)c1-c1cnc2c(-c3ccc(CC(=O)O)cc3)cn(CC3(C)CCOCC3)c2c1 [P-0776, 2-[4-[6-(3,5-dimethylisoxazol-4-yl)-1-[(4-methyltetrahydrpyran-4-yl)methyl]pyrrolo[3,2-b]pyridin-3-yl]phenyl]acetic acid] | < 1 | 1 to 10 | > 5.00 | – |
| CCOC(=O)c1ccc(-c2cn(CC3CCC(F)(F)CC3)c3cc(-c4c(C)noc4C)cnc23)cc1Cl [P-0534, ethyl 2-chloro-4-[1-[(4,4-difluorocyclohexyl)methyl]-6-(3,5-dimethylisoxazol-4-yl)pyrrolo[3,2-b]pyridin-3-yl]benzoate] | < 1 | 1 to 10 | > 5.00 | – |

Reference: patent US10519177B2, “Heterocyclic compounds and uses thereof” (Plexxikon Inc., priority 2013, dated 2019)
